Consider two molecules from patent US7875284B2, “Methods of manufacturing and modifying taxane coatings for implantable medical devices” (Cook Incorporated, priority 2006, dated 2011).

Data set [1] is described as follows: Elution of paclitaxel coatings in 0.3% sodium dodecyl sulfate (SDS). Conditions: 0.3% SDS, 25° C.; FIGS. 7A-7B. The format is physicochemical. An excerpt: Taxane therapeutic agents can have different elution profiles in different elution media. Another suitable elution medium for taxane therapeutic agent is sodium dodecyl sulfate (SDS).
For data set [2] the following is noted: for first order rate constants k1, k2 used for the dissolution formula: restated.
Source text: The rate of dissolution of the taxane therapeutic agent can vary based on the elution medium being used and the solid form of the taxane therapeutic agent before dissolution. An elution profile can be obtained by any suitable method that allows for measurement of the release of the taxane therapeutic agent from the coating in a manner that can be measured with a desired level of accuracy and precision. In one embodiment, the elution profile of the release of a taxane therapeutic agent is obtained by contacting the medical device with a suitable elution medium. The elution medium can be formulated to simulate conditions present at a particular point of treatment within a body vessel. For example, an elution medium comprising porcine serum can be used to simulate implantation within a blood vessel. The release of taxane therapeutic agent from the medical device can be measured by any suitable spectrographic method, such as measurement of a UV absorption spectrum of the test fluid after contacting the medical device. Typically, the intensity of absorption at characteristic UV absorption peak, such as about 227 nm, can be correlated to the presence and amount of a taxane therapeutic agent in a sample. The amount of taxane therapeutic agent on the medical device can be determined by contacting the medical device with a suitable elution medium and detecting the amount of taxane therapeutic agent released from the medical device into the elution medium.
Preferably, the coated medical device can be contacted with a modified porcine serum elution medium at a constant flow rate of 16 mL/min for a desired period of time (e.g., 6-24 hours) sufficient to elute the aPTX present on the stent. The percentage of the taxane therapeutic agent dissolved can be measured as a function of time by monitoring the optical density of the first elution medium at 227 nm after contacting the coated stent, as described above. The modified porcine serum elution medium can be prepared by adding 0.104 mL of a 6.0 g/L Heparin solution to porcine serum at 37° C. and adjusting the pH to 5.6+/−0.3 using a 20% v/v aqueous solution of acetic acid. The elution rate profile of the taxane therapeutic agent can be measured for any desired period, and correlated to the amount of aPTX in the coating. Subsequently, the coated medical device is contacted with a second elution medium comprising 0.3% sodium dodecyl sulfate (SDS) at 25° C. a constant flow rate of 16 mL/min for a suitable time period to elute the dPTX present in the coating. The elution rate profile of the taxane therapeutic agent can be measured for any desired period, and correlated to the amount of aPTX (e.g., by elution in porcine serum) and dPTX (e.g., by subsequent elution in SDS) in the coating.
Data set [3] in a line: Elution of paclitaxel coatings in aqueous Heptakis-(2,6-di-O-methyl)-β-cyclodextrin (HCD). The conditions noted are these: 0.5% w/w aqueous HCD, 25° C.; within about 1 hour. It is filed as physicochemical. An excerpt:
A preferred first elution medium is an aqueous solution comprising 0.1% to about 10% of a cyclodextrin. In one aspect, an elution profile may be obtained by contacting a coated medical device comprising a taxane therapeutic agent with an elution medium comprising a cyclodextrin. A cyclodextrin is a cyclic oligosaccharide formed from covalently-linked glucopyranose rings defining an internal cavity. The diameter of the internal axial cavity of cyclodextrins increases with the number of glucopyranose units in the ring. The size of the glucopyranose ring can be selected to provide an axial cavity selected to match the molecular dimensions of a taxane therapeutic agent. The cyclodextrin is preferably a modified beta-cyclodextrin, such as Heptakis-(2,6-di-O-methyl)-β-cyclodextrin (HCD). Suitable cyclodedtrin molecules include other β-cyclodextrin molecules, as well as γ-cyclodextrin structures.
Preferably, the cyclodextrin elution medium is formulated to provide distinguishable elution rates for different coating configurations, providing different elution profiles for different solid forms of a taxane therapeutic agent in the coating. […] For example, the elution medium may contact a medical device coating in a continuous flow configuration, or in a batch testing configuration.
Taxane therapeutic agents typically have different elution profiles in different elution media.

Take `CC(=O)O[C@H]1C(=O)[C@@]2(C)[C@H]([C@H](OC(=O)c3ccccc3)[C@]3(O)C[C@H](OC(=O)[C@H](O)[C@@H](NC(=O)c4ccccc4)c4ccccc4)C(C)=C1C3(C)C)[C@]1(OC(C)=O)CO[C@@H]1C[C@@H]2O` [amorphous paclitaxel, paclitaxel]: the “rate of elution compared with dihydrate paclitaxel” value in data set [1] is “more rapid”. The “time within which substantially all of the paclitaxel eluted” value in data set [2] (continuous flow of porcine serum, FIG. 14, Example 6) is recorded as “less than 5 hours”. In addition, the “half life of elution” value in data set [2] (pig, serum) is “about 30 minutes”. For the same molecule, in data set [2] (porcine serum, 37° C., single-layer coating on vascular stent, within about 6.5 hours (400 minutes)), the “percentage of the coating dissolved” value is 100%. The “first order rate constants k1, k2 used for the dissolution formula” value in data set [2] (porcine serum) turned out to be 0.0244 min⁻¹. For the same molecule, in data set [3], the “percentage of paclitaxel dissolved/released” value is listed as “about 80%”.

On to `CC(=O)O[C@H]1C(=O)[C@@]2(C)[C@H]([C@H](OC(=O)c3ccccc3)[C@]3(O)C[C@H](OC(=O)[C@H](O)[C@@H](NC(=O)c4ccccc4)c4ccccc4)C(C)=C1C3(C)C)[C@]1(OC(C)=O)CO[C@@H]1C[C@@H]2O` [dihydrate paclitaxel, paclitaxel], for which the “first order rate constant of elution” value in data set [2] (porcine serum (25° C.) as printed) was “about 0.0003 min^−1”. Besides, in data set [2] (porcine serum, 37° C., single-layer coating on vascular stent, after about 24 hours), the “percentage of the coating eluted” value is recorded as “less than 40%”. In data set [2] (porcine serum), the “first order rate constants k1, k2 used for the dissolution formula” value was determined as 0.0003 min⁻¹. The “percentage of paclitaxel dissolved/released” value in data set [3] was “less than 20%”.
